According to US9000025B2, “Autotaxin inhibitors and uses thereof” (Amira Pharmaceuticals, Inc., priority 2010, dated 2015):

Target: T1, autotaxin (ATX) (Homo sapiens, UniProt Q13822)
T1 construct: conditioned medium from the human melanoma cell line, MDA-MB-4355, which endogenously expresses autotaxin; host or cells: MDA-MB-435S human melanoma cells; serum-free conditioned medium, concentrated 20-fold
Assay: Native Autotaxin Choline Release Assay
Type: biochemical
Conditions: autotaxin in conditioned medium from human melanoma cell line; choline released from LPC; read-out: MDA-MB-435S Assay IC50
Procedure, shortened: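 Native ATX from conditioned serum-free, phenol-red-free DMEM of confluent cells cultured 48 h; LPC as substrate. Released choline detected with choline oxidase/peroxidase/4-aminoantipyrine colour mix in 50 mM Tris pH 8, 10 min at 37 °C, absorbance 555 nm; choline quantified against standard curve, equated to LPA formed.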

Structure (SMILES)	IC50 [nM]
CCCn1cc(-n2c(C)c(Sc3ccc(OC)c(C(=O)O)c3)c3ccc(Cl)c(F)c32)cn1 [Compound 4-10, 5-[6-Chloro-7-fluoro-2-methyl-1-(1-propyl-1H-pyrazol-4-yl)-1H-indol-3-ylsulfanyl]-2-methoxy-benzoic acid]	< 300
CCn1cc(-n2c(C)c(Sc3cccc(C(=O)O)c3F)c3c(F)cc(Cl)cc32)cn1 [Compound 4-11, 3-[6-Chloro-1-(1-ethyl-1H-pyrazol-4-yl)-4-fluoro-2-methyl-1H-indol-3-ylsulfanyl]-2-fluoro-benzoic acid]	< 300
CCCn1cc(-n2c(C)c(Sc3cccc(CC(=O)O)c3F)c3ccc(Cl)c(F)c32)cn1 [Compound 4-12, {3-[6-Chloro-7-fluoro-2-methyl-1-(1-propyl-1H-pyrazol-4-yl)-1H-indol-3-ylsulfanyl]-2-fluoro-phenyl}-acetic acid]	< 300
CCCn1cc(-n2c(C)c(Sc3ccc(C)c(C(=O)O)c3)c3ccc(Cl)c(F)c32)cn1 [Compound 4-13, 5-[6-Chloro-1-(1-propyl-1H-pyrazol-4-yl)-7-fluoro-2-methyl-1H-indol-3-ylsulfanyl]-2-methyl-benzoic acid]	< 300
CCCn1cc(-n2c(C)c(Sc3ccc(C(F)(F)F)c(CC(=O)O)c3)c3ccc(Cl)c(F)c32)cn1 [Compound 4-14, {5-[6-Chloro-7-fluoro-2-methyl-1-(1-propyl-1H-pyrazol-4-yl)-1H-indol-3-ylsulfanyl]-2-trifluoromethyl-phenyl}-acetic acid]	< 300
CCn1cc(-n2c(C)c(Sc3cccc(CC(=O)O)c3F)c3ccc(Cl)c(F)c32)cn1 [Compound 4-15, {3-[6-Chloro-1-(1-ethyl-1H-pyrazol-4-yl)-7-fluoro-2-methyl-1H-indol-3-ylsulfanyl]-2-fluoro-phenyl}-acetic acid]	< 300
